Test results from US9840509B2, “Heterocyclic compounds” (CADILA HEALTHCARE LIMITED, priority 2014, dated 2017).

What was measured:
CYP 2C9 = biological target: T1, CYP 2C9 (Homo sapiens, UniProt P11712); test: CYP inhibition in human liver microsomes, 2C9; assay type: in vitro ADME; conditions: pH 7.4, @ 10 μM concn
T1 construct: from tissue; host or cells: human liver microsomes
Summary of the method: (§1)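 Test compounds at […] and 10 μM were incubated in duplicate with human liver microsomes, probe substrate and 1 mM NADPH in 100 mM phosphate buffer pH 7.4 at 37° C. Reactions were stopped with acetonitrile containing internal standard, and the marker-reaction metabolite was quantified by LC-MS/MS.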

CYP 2D6 = biological target: T2, CYP 2D6 (Homo sapiens, UniProt P10635); test: CYP inhibition in human liver microsomes, 2D6; assay type: in vitro ADME; conditions: pH 7.4, @ 10 μM concn
T2 construct: from tissue; host or cells: human liver microsomes
T2 sequence (P10635 whole entry): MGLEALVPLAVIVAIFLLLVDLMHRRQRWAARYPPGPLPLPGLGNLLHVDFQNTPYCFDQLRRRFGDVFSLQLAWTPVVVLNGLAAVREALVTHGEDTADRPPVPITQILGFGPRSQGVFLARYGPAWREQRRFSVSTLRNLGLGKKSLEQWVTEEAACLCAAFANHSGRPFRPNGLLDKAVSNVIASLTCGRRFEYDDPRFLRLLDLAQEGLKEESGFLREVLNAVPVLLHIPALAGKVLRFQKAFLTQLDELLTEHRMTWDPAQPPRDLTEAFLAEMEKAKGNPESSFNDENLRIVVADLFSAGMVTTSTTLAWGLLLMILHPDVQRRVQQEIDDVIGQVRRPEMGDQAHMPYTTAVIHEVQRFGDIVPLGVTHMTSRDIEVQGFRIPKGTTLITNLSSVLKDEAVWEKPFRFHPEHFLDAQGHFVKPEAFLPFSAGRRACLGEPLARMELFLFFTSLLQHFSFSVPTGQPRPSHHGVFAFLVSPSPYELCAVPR
Summary of the method: as §1

CYP 2C19 = biological target: T3, CYP 2C19 (Homo sapiens, UniProt P33261); test: CYP inhibition in human liver microsomes, 2C19; assay type: in vitro ADME; conditions: pH 7.4, @ 10 μM concn
T3 construct: from tissue; host or cells: human liver microsomes
T3 sequence (P33261 whole entry): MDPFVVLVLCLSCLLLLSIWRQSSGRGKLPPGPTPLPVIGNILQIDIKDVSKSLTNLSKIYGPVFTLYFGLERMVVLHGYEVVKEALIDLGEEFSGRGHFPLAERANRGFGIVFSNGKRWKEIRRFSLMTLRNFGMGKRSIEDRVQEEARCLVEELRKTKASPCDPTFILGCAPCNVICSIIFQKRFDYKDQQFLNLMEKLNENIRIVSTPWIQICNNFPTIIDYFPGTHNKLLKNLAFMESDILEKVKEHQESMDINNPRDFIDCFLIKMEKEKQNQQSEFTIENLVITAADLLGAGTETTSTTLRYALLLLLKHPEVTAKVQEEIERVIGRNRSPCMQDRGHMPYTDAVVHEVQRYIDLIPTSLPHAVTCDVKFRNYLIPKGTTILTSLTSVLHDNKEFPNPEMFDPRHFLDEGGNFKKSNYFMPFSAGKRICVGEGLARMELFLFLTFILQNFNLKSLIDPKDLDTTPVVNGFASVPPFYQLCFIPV
Summary of the method: as §1

CYP 1A2 = biological target: T4, CYP 1A2 (Homo sapiens, UniProt P05177); test: CYP inhibition in human liver microsomes, 1A2; assay type: in vitro ADME; conditions: pH 7.4, @ 10 μM concn
T4 construct: from tissue; host or cells: human liver microsomes
T4 sequence (P05177 1-516): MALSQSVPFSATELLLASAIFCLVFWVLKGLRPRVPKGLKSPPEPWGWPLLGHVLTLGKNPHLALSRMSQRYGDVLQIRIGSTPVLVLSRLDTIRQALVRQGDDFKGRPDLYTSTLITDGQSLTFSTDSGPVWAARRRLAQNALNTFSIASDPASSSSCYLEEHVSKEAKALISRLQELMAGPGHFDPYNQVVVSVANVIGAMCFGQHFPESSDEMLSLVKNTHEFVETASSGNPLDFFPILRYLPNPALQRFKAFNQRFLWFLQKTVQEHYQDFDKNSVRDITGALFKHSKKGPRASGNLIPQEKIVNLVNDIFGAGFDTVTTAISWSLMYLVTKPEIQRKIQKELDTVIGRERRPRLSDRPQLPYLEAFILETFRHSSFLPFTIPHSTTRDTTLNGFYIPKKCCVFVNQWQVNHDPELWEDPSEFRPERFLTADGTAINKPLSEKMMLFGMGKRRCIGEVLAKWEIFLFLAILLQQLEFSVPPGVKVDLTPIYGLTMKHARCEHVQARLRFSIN
Summary of the method: as §1

CYP 2C8 = biological target: T5, CYP 2C8 (Homo sapiens, UniProt P10632); test: CYP inhibition in human liver microsomes, 2C8; assay type: in vitro ADME; conditions: pH 7.4, @ 10 μM concn
T5 construct: from tissue; host or cells: human liver microsomes
T5 sequence (P10632 1-490): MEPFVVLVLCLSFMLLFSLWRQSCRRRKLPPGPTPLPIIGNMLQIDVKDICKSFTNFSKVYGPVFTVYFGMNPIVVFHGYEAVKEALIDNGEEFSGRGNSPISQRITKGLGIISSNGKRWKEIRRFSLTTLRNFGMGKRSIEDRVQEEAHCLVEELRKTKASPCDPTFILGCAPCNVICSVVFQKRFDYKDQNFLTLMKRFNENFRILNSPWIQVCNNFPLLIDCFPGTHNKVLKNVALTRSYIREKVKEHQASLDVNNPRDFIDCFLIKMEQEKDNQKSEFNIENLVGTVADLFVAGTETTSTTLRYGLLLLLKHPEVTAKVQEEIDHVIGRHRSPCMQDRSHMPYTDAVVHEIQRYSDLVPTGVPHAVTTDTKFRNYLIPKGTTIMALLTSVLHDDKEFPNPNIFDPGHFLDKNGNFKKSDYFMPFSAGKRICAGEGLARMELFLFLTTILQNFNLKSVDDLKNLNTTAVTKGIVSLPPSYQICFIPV
Summary of the method: as §1

CYP 3A4 = biological target: T6, CYP 3A4 (Homo sapiens, UniProt P08684); test: CYP inhibition in human liver microsomes, 3A4; assay type: in vitro ADME; conditions: pH 7.4, @ 10 μM concn
T6 construct: from tissue; host or cells: human liver microsomes
T6 sequence (P08684 whole entry): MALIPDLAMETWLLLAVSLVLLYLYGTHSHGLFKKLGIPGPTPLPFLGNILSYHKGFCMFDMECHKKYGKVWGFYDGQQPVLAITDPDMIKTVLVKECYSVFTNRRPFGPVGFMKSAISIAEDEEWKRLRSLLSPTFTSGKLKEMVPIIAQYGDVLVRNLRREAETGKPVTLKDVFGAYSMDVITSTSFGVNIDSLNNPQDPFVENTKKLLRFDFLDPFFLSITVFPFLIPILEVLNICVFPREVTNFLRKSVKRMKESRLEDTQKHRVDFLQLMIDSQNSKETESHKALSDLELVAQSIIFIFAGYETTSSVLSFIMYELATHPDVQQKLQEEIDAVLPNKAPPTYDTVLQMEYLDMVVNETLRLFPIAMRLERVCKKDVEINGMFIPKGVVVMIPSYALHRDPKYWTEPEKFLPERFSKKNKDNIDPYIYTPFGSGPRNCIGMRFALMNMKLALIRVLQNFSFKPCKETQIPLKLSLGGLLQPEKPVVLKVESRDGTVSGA
Summary of the method: as §1

[1] = biological target: T7, recombinant purified human BTK (Homo sapiens, UniProt Q06187); test: In vitro BTK kinase assay on ADP Glo platform; assay type: biochemical; conditions: 2 hr room temperature, read-out: In-vitro BTK inhibitory activity: IC50
T7 construct: purchased SignalChem, USA
T7 sequence (Q06187 whole entry): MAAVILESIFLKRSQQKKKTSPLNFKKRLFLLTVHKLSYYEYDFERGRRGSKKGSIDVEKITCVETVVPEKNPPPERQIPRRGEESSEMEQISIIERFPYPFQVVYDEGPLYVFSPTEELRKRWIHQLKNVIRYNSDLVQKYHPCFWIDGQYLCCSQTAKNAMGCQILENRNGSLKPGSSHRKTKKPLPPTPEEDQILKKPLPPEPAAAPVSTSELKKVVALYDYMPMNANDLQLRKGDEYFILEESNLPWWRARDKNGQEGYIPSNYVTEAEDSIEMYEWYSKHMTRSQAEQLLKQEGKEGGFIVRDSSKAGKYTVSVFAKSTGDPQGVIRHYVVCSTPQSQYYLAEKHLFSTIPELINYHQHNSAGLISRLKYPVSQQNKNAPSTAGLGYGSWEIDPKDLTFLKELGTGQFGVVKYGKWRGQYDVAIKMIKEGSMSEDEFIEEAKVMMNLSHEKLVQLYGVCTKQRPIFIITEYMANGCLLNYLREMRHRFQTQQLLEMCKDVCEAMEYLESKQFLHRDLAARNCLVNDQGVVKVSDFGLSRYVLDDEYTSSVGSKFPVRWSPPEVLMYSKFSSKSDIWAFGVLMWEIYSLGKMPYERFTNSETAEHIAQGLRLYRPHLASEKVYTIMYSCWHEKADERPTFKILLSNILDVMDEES
Summary of the method: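 Recombinant human BTK (3 ng/reaction) with compound dilutions in Tris pH 7.5, MgCl2/MnCl2, BSA, DTT; started with 50 µM ATP (final) and polyGln4Tyr1 substrate, 2 h at room temperature. ADP formed detected by ADP-Glo luminescence; IC50 by nonlinear fit versus uninhibited enzyme as 100%.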

T1 sequence (P11712 whole entry): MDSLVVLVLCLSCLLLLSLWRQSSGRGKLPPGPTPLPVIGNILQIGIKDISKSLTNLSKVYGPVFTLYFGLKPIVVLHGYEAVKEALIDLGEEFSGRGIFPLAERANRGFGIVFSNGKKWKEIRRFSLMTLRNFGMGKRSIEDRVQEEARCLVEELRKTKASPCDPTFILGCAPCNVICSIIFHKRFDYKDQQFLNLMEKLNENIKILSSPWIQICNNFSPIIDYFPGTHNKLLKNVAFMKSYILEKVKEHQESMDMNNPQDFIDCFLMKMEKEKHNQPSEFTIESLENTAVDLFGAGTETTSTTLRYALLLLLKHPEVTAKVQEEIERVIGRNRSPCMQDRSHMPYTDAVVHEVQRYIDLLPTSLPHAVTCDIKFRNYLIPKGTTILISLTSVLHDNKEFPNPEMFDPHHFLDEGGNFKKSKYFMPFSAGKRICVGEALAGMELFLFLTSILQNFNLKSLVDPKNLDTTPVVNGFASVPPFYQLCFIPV

SMILES	inhibition at 10 μM (CYP 2C9)	inhibition at 10 μM (CYP 2D6)	inhibition at 10 μM (CYP 2C19)	inhibition at 10 μM (CYP 1A2)	inhibition at 10 μM (CYP 2C8)	inhibition at 10 μM (CYP 3A4)	IC50 [1]
C=CC(=O)N1CC2CC(n3nc(-c4ccc5nc(NC(C)=O)sc5c4)c4c(N)ncnc43)CC2C1 (centres unmarked) [Compound 9, N-(6-(1-(2-acryloyloctahydrocyclopenta[c]pyrrol-5-yl)-4-amino-1H-pyrazolo [3,4-d]pyrimidin-3-yl)benzo[d]thiazol-2-yl)acetamide]	> 50%	< 50%	< 50%	< 50%	> 50%	> 50%	28 nM
CN(C)C/C=C/C(=O)N1CC2CC(n3nc(-c4ccc(-c5nnc(-c6ccccn6)o5)cc4)c4c(N)ncnc43)CC2C1 (centres unmarked) [Compound 57, (E)-1-(5-(4-amino-3-(4-(5-(pyridin-2-yl)-1,3,4-oxadiazol-2-yl)phenyl)-1H-pyrazolo[3,4-d]pyrimidin-1-yl)hexahydrocyclopenta[c]pyrrol-2(1H)-yl)-4-(dimethylamino)but-2-en-1-one]	> 50%	< 50%	< 50%	< 50%	> 50%	> 50%	100 nM
C=CC(=O)N1CC2CC(n3nc(-c4ccc(Oc5cccnc5)cc4)c4c(N)ncnc43)CC2C1 (centres unmarked) [Compound 52, 1-(5-(4-amino-3-(4-(pyridin-3-yloxy)phenyl)-1H-pyrazolo[3,4-d]pyrimidin-1-yl)hexahydrocyclopenta[c]pyrrol-2(1H)-yl)prop-2-en-1-one]	< 50%	< 50%	> 50%	> 50%	< 50%	> 50%	162 nM
C=CC(=O)N1CC2CC(n3nc(-c4ccc5nc(Oc6ccccc6)sc5c4)c4c(N)ncnc43)CC2C1 (centres unmarked) [Compound 20, 1-(5-(4-amino-3-(2-phenoxybenzo[d]thiazol-6-yl)-1H-pyrazolo [3,4-d]pyrimidin-1-yl)hexahydrocyclopenta[c]pyrrol-2(1H)-yl)prop-2-en-1-one]	> 50%	< 50%	< 50%	< 50%	> 50%	> 50%	223 nM
C=CC(=O)N1CC2CC(n3nc(-c4ccc5c(c4)OCO5)c4c(N)ncnc43)CC2C1 (centres unmarked) [Compound 15, 1-(5-(4-amino-3-(benzo[d] [1,3]dioxol-5-yl)-1H-pyrazolo[3,4-d]pyrimidin-1-yl)hexahydrocyclopenta[c]pyrrol-2(1H)-yl)prop-2-en-1-one]	< 50%	< 50%	< 50%	< 50%	< 50%	> 50%	18 nM
C=CC(=O)N1CC2CC(n3nc(-c4ccc5ocnc5c4)c4c(N)ncnc43)CC2C1 (centres unmarked) [Compound 22, 1-(5-(4-amino-3-(benzo[d]oxazol-5-yl)-1H-pyrazolo[3,4-d]pyrimidin-1-yl)hexahydrocyclopenta[c]pyrrol-2(1H)-yl)prop-2-en-1-one]	< 50%	> 50%	< 50%	< 50%	< 50%	< 50%	40 nM

These reach a lower IC50 [1]. Values come first.

inhibition at 10 μM (CYP 2C9)	inhibition at 10 μM (CYP 2D6)	inhibition at 10 μM (CYP 2C19)	inhibition at 10 μM (CYP 1A2)	inhibition at 10 μM (CYP 2C8)	inhibition at 10 μM (CYP 3A4)	IC50 [1]	SMILES
< 50%	< 50%	< 50%	< 50%	< 50%	> 50%	5 nM	C=CC(=O)N1CC2CC(n3nc(-c4ccc5ncoc5c4)c4c(N)ncnc43)CC2C1 (centres unmarked) [Compound 17, 1-(5-(4-amino-3-(benzo[d]oxazol-6-yl)-1H-pyrazolo[3,4-d]pyrimidin-1-yl)hexahydrocyclopenta[c]pyrrol-2(1H)-yl)prop-2-en-1-one]
< 50%	< 50%	< 50%	< 50%	< 50%	< 50%	4 nM	C=CC(=O)N1CC2CC(n3nc(-c4ccc5nc(-c6ccccc6)oc5c4)c4c(N)ncnc43)CC2C1 (centres unmarked) [Compound 19, 1-(5-(4-amino-3-(2-phenylbenzo[d]oxazol-6-yl)-1H-pyrazolo[3,4-d]pyrimidin-1-yl)hexahydrocyclopenta[c]pyrrol-2(1H)-yl)prop-2-en-1-one]
< 50%	< 50%	< 50%	< 50%	< 50%	> 50%	3.5 nM	C=CC(=O)N1CC2CC(n3nc(-c4ccc(/C(=N/c5cc(C)ccn5)OC)cc4)c4c(N)ncnc43)CC2C1 (centres unmarked) [Compound 41, (Z)-methyl 4-(1-(2-acryloyloctahydrocyclopenta[c]pyrrol-5-yl)-4-amino-1H-pyrazolo[3,4-d]pyrimidin-3-yl)-N-(4-methylpyridin-2-yl)benzimidate]
< 50%	< 50%	< 50%	< 50%	< 50%	< 50%	1.7 nM	C=CC(=O)N1CC2CC(n3nc(-c4ccc5sccc5c4)c4c(N)ncnc43)CC2C1 (centres unmarked) [Compound 6, 1-(5-(4-amino-3-(benzo[b]thiophen-5-yl)-1H-pyrazolo[3,4-d]pyrimidin-1-yl)hexahydrocyclopenta[c]pyrrol-2(1H)-yl)prop-2-en-1-one]
< 50%	< 50%	< 50%	< 50%	< 50%	< 50%	1.4 nM	C=CC(=O)N1CC2CC(n3nc(-c4ccc5nc(-c6ccccc6)sc5c4)c4c(N)ncnc43)CC2C1 (centres unmarked) [Compound 14, 1-(5-(4-amino-3-(2-phenylbenzo[d]thiazol-6-yl)-1H-pyrazolo[3,4-d]pyrimidin-1-yl)hexahydrocyclopenta[c]pyrrol-2(1H)-yl)prop-2-en-1-one]
< 50%	< 50%	< 50%	< 50%	< 50%	< 50%	1.3 nM	C=CC(=O)N1CC2CC(n3nc(-c4ccc(Oc5ccccc5)cc4)c4c(N)ncnc43)CC2C1 (centres unmarked) [Compound 1, 1-(5-(4-amino-3-(4-phenoxyphenyl)-1H-pyrazolo[3,4-d]pyrimidin-1-yl)hexahydrocyclopenta[c]pyrrol-2(1H)-yl)prop-2-en-1-one]
< 50%	< 50%	< 50%	< 50%	< 50%	< 50%	1.2 nM	C=CC(=O)N1CC2CC(n3nc(-c4ccc(NC(=O)c5cnccn5)cc4)c4c(N)ncnc43)CC2C1 (centres unmarked) [Compound 35, N-(4-(1-(2-acryloyloctahydrocyclopenta[c]pyrrol-5-yl)-4-amino-1H-pyrazolo[3,4-d]pyrimidin-3-yl)phenyl)pyrazine-2-carb oxamide]
< 50%	< 50%	< 50%	< 50%	< 50%	< 50%	1 nM	C=CC(=O)N1CC2CC(n3nc(-c4ccc(C(=O)Nc5cnccn5)cc4)c4c(N)ncnc43)CC2C1 (centres unmarked) [Compound 37, 4-(1-(2-acryloyloctahydrocyclopenta[c]pyrrol-5-yl)-4-amino-1H-pyrazolo[3,4-d]pyrimidin-3-yl)-N-(pyrazin-2-yl)benzamide]
